Series [1] is described as follows: Peptide solubility test in saline (visual: cloudy = insoluble, clear = soluble). The conditions noted are these: visual assessment.
Procedure: MBP, MOG and PLP peptides were also tested.
Peptides were added to saline at different concentrations and it was visually assessed whether the resulting sample was cloudy (peptide insoluble) or clear (peptide soluble).
A further series relates to TCC14. Put plainly: Antigen specificity of TCC14 (co-cultivation with monocytes and peptide-coupled RBCs, fluorospot). Type of series: cell-based, human. Conditions: irrelevant peptide; 48 hours; Figure 15. The method, then:
In order to evaluate whether the IL-10 and IFN-γ secretion upon co-culturing TCC14 with active monocytes and peptide-coupled RBCs is antigen-specific, biotinylated SIN3A* peptide ([…]) (SEQ ID NO: 38) was coupled to RBCs and co-cultured with TCC14 and active monocytes. […] Therefore, it was tested if the SIN3A*-coupled RBCs have any effect on TCC14. Soluble SIN3A* peptide (QPVEFNHAIHYVN) (SEQ ID NO: 39) was used for stimulation.
Monocytes were magnetically isolated from PBMCs of a DR15 donor and seeded at 50×10^3 in each well. 25 ×10^3 of the TCC14 was seeded in each well (final volume 200 µl). Coupling to RBCs was performed with 1.58 mg/ml (0.132 mg/ml × 12) of the respective peptide. 200×10^3 RBCs were added to each well.
IFN-α was directly added into the wells at the time of seeding the cells at 10000 U/ml. In the samples with soluble peptides, 10 µM of the peptides was added to the wells. Plates were incubated for 48 hours and stained for IFN-γ, IL-10 and IL-17 according to the manufacturer's instructions (see fluorospot assay supra).

The test system of series [2] is RASGRP2 78-87-specific T cell clones (TCCs). Put plainly: T cell reactivity in RASGRP2 (78-87) specific T cell clones (3H-thymidine assay). Type of series: cell-based, human. The conditions noted are these: 72 hours; four DRB1*15:01-restricted clones; presented by BLS DR2b cells; Figure 6. How it is done: Four RASGRP2 78-87-specific T cell clones (TCCs) (cf. Wang et al., 2020, Cell, 183(5):1264-1281) were tested by 3H-thymidine incorporation (72 hours) for their responses against the biotinylated RASGRP2 (74-91) (SEQ ID NO: 2) peptide "bioRASGRP2 74-91" and a positive control, i.e. stimulation with anti-CD2/3/28-coupled beads. Each of the clones is DRB1*15:01-restricted.
Proliferation was measured 72 h after stimulation by 3H-thymidine (Hartmann Analytic, Braunschweig, Germany) incorporation in a scintillation counter (Wallac 1450, PerkinElmer, Rodgau-Jürgesheim, Germany). Depicted is the fold change over unstimulated control. Each dot represents the mean of 3 repeat wells for each clone. Peptides were presented in the assay by BLS cells transfected with DRA*01:01 and DRB1*15:01 (the heterodimer is referred to as BLS DR2b).

Ends that are not written are not given here.

Consider “FRFTPFKQAVKETCA [TSTA3-4 (296-310), FRFTPFKQAVKETCA]”, for which the solubility in saline entry in series [1] (at a concentration of 10 mg/ml) is on record as “soluble in saline”. With “KTCHLVRYWISAFPAEFD [RASGRP2 (74-91), KTCHLVRYWISAFPAEFD]”, the solubility in saline result in series [1] (at a concentration of 10 mg/ml) is “soluble in saline”.

As to “LSVGEEDEVS [TSTA3-3 (242-251), LSVGEEDEVS]”, in series [1] (at a concentration of 10 mg/ml), the solubility in saline entry was “soluble in saline”. With LVRYWISAFP [RASGRP2 78-87, LVRYWISAFP], the solubility in saline result in series [1] (concentration not given) was “not soluble in saline”. The same measure, in the same setting: then “LVRYWISAFPAEFDL [RASGRP2 78-92, LVRYWISAFPAEFDL]”, with “insoluble in saline”; and “LVRYWISAFPAEFDLNPE [RASGRP2 78-95, LVRYWISAFPAEFDLNPE]”, with “insoluble in saline”. For “PHNSNFGYSYAKRMI [TSTA3-2 (136-150), PHNSNFGYSYAKRMI]”, the solubility in saline result in series [1] (at a concentration of 10 mg/ml) was “soluble in saline”. Consider “QPVEFNHAIHYVN [SIN3A*, irrelevant peptide, a tumor-specific antigen not recognized by TCC14]”, for which the “effect on the T cell clone (IL-10 and IFN-γ secretion)” value in the series on TCC14 is recorded as “neither stimulatory nor inhibitory”. As for “SLQVKTCHLVRYWISAFPAEFDLNPE [RASGRP2 70-95]”, in series [1] (concentration not given), the solubility in saline entry was “insoluble in saline”. Same read-out and setting: as for “SNSLQVKTCHLVRYWISAFPAEFDLNPELA [RASGRP2 68-97]”, the entry is “insoluble in saline”.

Regarding “TAQTRALFEKVQPTH [TSTA3-1 (51-65), TAQTRALFEKVQPTH]”, the solubility in saline entry in series [1] (at a concentration of 10 mg/ml) is “soluble in saline”.

For “biotinylated RASGRP2 (74-91): RASGRP2 (74-91) (SEQ ID NO: 2) coupled to a Biotin-PEG linker (Maleimide-PEG2-Biotin) (KTCHLVRYWISAFPAEFD; also: coupled to Maleimide-PEG2-Biotin linker, site not given here; listed as Homo sapiens)”, the “proliferative response (3H-thymidine incorporation)” value in series [2] was “positive proliferative response”.
